One data set deals with S. salivarius H-257. The following applies: for IC50: read-out: ID/50; for ID/50 (recalculated as ppm F): 1440 min.
The next data set deals with L. casei. Conditions: for IC50: read-out: ID/50; for ID/50 (recalculated as ppm F): 1440 min.
The next data set concerns S. salivarius SS4. Conditions: for IC50: read-out: ID/50; for ID/50 (recalculated as ppm F): 1440 min.
A further data set deals with S. sanguis 10557. The following applies: for IC50: read-out: ID/50; for ID/50 (recalculated as ppm F): 1440 min.
In a further data set the test system is S. mutans 6715. The following applies: for IC50: read-out: ID/50; for ID/50 (recalculated as ppm F): 1440 min.
A further data set relates to S. sanguis 10556. Conditions: for IC50: read-out: ID/50; for ID/50 (recalculated as ppm F): 1440 min.
For a further data set, the system named is S. mutans OMZ-176. Conditions: for IC50: read-out: ID/50; for ID/50 (recalculated as ppm F): 1440 min.
The subject of a further data set is cariogenic bacteria. As to the kind of experiment: inhibition of bacterial growth, overall findings. The following applies: all bacterial isolates tested.
A further data set is described as follows: pH of solution. Format: physicochemical.
The subject of the next data set is artificial plaque. Description: in vitro antiplaque study. Format: cell-based, clinical plaque samples. The following applies: for Percentage Inhibition of Growth of Artificial Plaque: means ±95% confidence limits. The method, then:
The in vitro plaque was initiated on uniformly sized aluminum plummets which were previously coated for 20 min. with wax stimulated whole saliva. These coated plummets were then placed in a Trypticase (B.B.L.) 1% sucrose growth medium inoculated with clinical plaque samples. After 5 hours of incubation at 37° C. the plummets were immersed in a solution containing equal volumes of whole saliva and the test compound for one minute and subsequently suspended overnight (37° C.) in a 20% solution of saliva supernatant. On the second day the plummets were retreated with the test solution (1 min.) and reincubated in inoculated Trypticase-sucrose growth medium for 5 hours. After this period of time the plaques were rinsed in distilled water for 5 minutes. The plaques were then removed from the plummets by sonication in 10 ml distilled water and quantitated in a Unicam SP500 spectrophotometer at 570 nm.
Five replicas per test compound were examined.

Where two headings read alike, the source gives them in different places.

As for `[Cl-].[Cl-].[Co+2]` [CoCl2], the IC50 is 550 µM with S. salivarius H-257; greater than 12000 µM with L. casei; 5960 µM with S. salivarius SS4; 3840 µM in the data set on S. sanguis 10557; 7720 µM in the data set on S. mutans 6715; 2890 µM in the data set on S. sanguis 10556. The IC50 with S. mutans OMZ-176 was determined as 10600 µM.
Consider `[Ca]` [Ca], for which the “inhibition of bacterial growth” value in the data set on cariogenic bacteria was “little or no effect”.
For `N.N.[F-].[F-].[F-].[F-].[F-].[F-].[Sn]` [Sn(NH4)2 F6, stannic ammonium fluoride], in the data set with cariogenic bacteria, the “inhibition of bacterial growth” value is “less active than the stannous form SnF2”. The “ID/50 (recalculated as ppm F)” value in the data set on S. salivarius H-257 (Table III, S. salivarius H-257) is 46 ppm F; in the data set with L. casei (Table III, L. casei), 288 ppm F; in the data set on S. salivarius SS4 (Table III, S. salivarius SS4), 188 ppm F; in the data set with S. sanguis 10557 (Table III, S. sanguis 10557) it was 45 ppm F; with S. mutans 6715 (Table III, S. mutans 6715), 137 ppm F; in the data set on S. sanguis 10556 (Table III, S. sanguis 10556) it was 25 ppm F. Besides, the “ID/50 (recalculated as ppm F)” value in the data set on S. mutans OMZ-176 (Table III, S. mutans OMZ-176) is on record as 163 ppm F. Moreover, the IC50 with S. salivarius H-257 (Table II, fluoride salts, S. salivarius H-257, means of triplicate experiments) amounted to 400 µM; with L. casei (Table II, fluoride salts, L. casei, means of triplicate experiments), 2530 µM; in the data set on S. salivarius SS4 (Table II, fluoride salts, S. salivarius SS4, means of triplicate experiments), 1650 µM; in the data set with S. sanguis 10557 (Table II, fluoride salts, S. sanguis 10557, means of triplicate experiments), 390 µM; in the data set with S. mutans 6715 (Table II, fluoride salts, S. mutans 6715, means of triplicate experiments), 1200 µM; in the data set with S. sanguis 10556 (Table II, fluoride salts, S. sanguis 10556, means of triplicate experiments), 220 µM. For the same compound, the IC50 with S. mutans OMZ-176 (Table II, fluoride salts, S. mutans OMZ-176, means of triplicate experiments) came to 1430 µM. Also, the “pH values in solution” value in “pH of solution” is given as roughly 3.8.
Take Al2 (SO4)3: the IC50 in the data set on S. salivarius H-257 was determined as 5400 µM; with L. casei, 6450 µM; in the data set with S. salivarius SS4, 7800 µM; with S. sanguis 10557, 8450 µM; with S. mutans 6715, 3560 µM; in the data set with S. sanguis 10556, 5550 µM. Also, the IC50 in the data set with S. mutans OMZ-176 turned out to be 5910 µM.
As to `[Mg]` [Mg], in the data set on cariogenic bacteria, the “inhibition of bacterial growth” value is “little or no effect”.
Regarding `O=S(=O)([O-])[O-].[Zn+2]` [ZnSO4], the IC50 was determined as 750 µM in the data set on S. salivarius H-257; 10400 µM with L. casei; 6000 µM in the data set on S. salivarius SS4; 400 µM in the data set on S. sanguis 10557; 5740 µM in the data set on S. mutans 6715; 360 µM in the data set with S. sanguis 10556. Also, the IC50 in the data set with S. mutans OMZ-176 came out at 7500 µM. Besides, the “antiplaque activity” value in the data set on artificial plaque (6.0-30.0 mM/L zinc) is “no difference in activity between ZnSO4 and ZnNH4 F3”. Also, the “Percentage Inhibition of Growth of Artificial Plaque” value in the data set on artificial plaque (zinc conc. 6.0 mM/L) worked out at 47 ± 14%; in the data set with artificial plaque (zinc conc. 15.0 mM/L), 51 ± 14%; with artificial plaque (zinc conc. 30.0 mM/L) it was 64 ± 14%.
On to `[Fe]` [Fe], for which the “inhibition of bacterial growth” value with cariogenic bacteria is “little or no effect”.
Take `[Cl][Sn][Cl]` [SnCl2]: the IC50 in the data set on S. salivarius H-257 is 3640 µM; with L. casei, 3000 to 6000 µM; in the data set with S. salivarius SS4, 1450 µM; with S. sanguis 10557, 1880 µM; in the data set on S. mutans 6715, 2260 µM; with S. sanguis 10556, 1270 µM. Further, the IC50 in the data set on S. mutans OMZ-176 is 3680 µM.
With `[Cl-].[Na+]` [Na], in the data set with cariogenic bacteria, the “inhibition of bacterial growth” value is on record as “little or no effect”.
`[Mn]` [Mn]: the “inhibition of bacterial growth” value in the data set on cariogenic bacteria was “little or no effect”.
In the case of SnF2, the “ID/50 (recalculated as ppm F)” value was 29 with S. salivarius H-257; 113 with L. casei; 93 with S. salivarius SS4; 32 with S. sanguis 10557; 56 in the data set with S. mutans 6715; 17 in the data set on S. sanguis 10556. Further, in the data set with S. mutans OMZ-176, the “ID/50 (recalculated as ppm F)” value is given as 87. Also, the IC50 in the data set on S. salivarius H-257 was found to be 740 µM; in the data set on L. casei, 2970 µM; with S. salivarius SS4, 2450 µM; in the data set on S. sanguis 10557, 840 µM; with S. mutans 6715 it was 1500 µM; with S. sanguis 10556, 440 µM. Besides, the IC50 in the data set with S. mutans OMZ-176 came out at 2280 µM. Further, the “% Reduction in Dissolution” value runs as follows: (pH 4) 57%; (pH 5) 54%; (pH 6) 45%; (pH 7) 43%.

Source of the values: US4430324A (priority 1982, dated 1984).
